Results: US12568972B2, “Pyridazinol compounds and derivatives, preparation methods, herbicidal compositions and applications thereof” (Qingdao Kingagroot Chemical Compound Co., Ltd., priority 2018, dated 2026)

test system: Chenopodiaceae; assay: Post-emergence test, weed control effect; type: in vivo; conditions: Dose 3000 g/ha, after 3 weeks
Summary of the method: (§1)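 Activity is expressed as a level from 0 (no effect) to 10 (plant dead), each step matching a further 10% fresh-weight inhibition, assessed 3 weeks post-treatment. Treatment: spray at 2-3 leaf stage of pot-grown plants, compound in acetone, Tween-80 and water with 80% vegetable oil methyl ester synergist at 1500 g/ha.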

SMILES	weed control effect (activity level), Chenopodiaceae	weed control effect, Chenopodiaceae (activity level)
Cc1cc(-c2nnc(C(F)(F)F)cc2O)nn1C [Compound 540]	10	
CCc1cnn(C)c1-c1nnc(C(F)(F)F)cc1O [Compound 809]	10	
Cc1ccc(-c2nnc(C(F)(F)F)cc2O)o1 [Compound 414]	10	
Oc1cc(C(F)(F)F)nnc1-c1ccc(Cl)nc1Cl [Compound 991]	10	
CCSC(=O)Oc1cc(C(F)(F)F)nnc1-c1ccc(F)c(F)c1 [Compound 1-42]		10
CS(=O)(=O)c1ccc(S(=O)(=O)Oc2cc(C(F)(F)F)nnc2-c2ccc(F)cc2)cc1 [Compound 1-137]		10
Cc1ccc(-c2nnc(C(F)(F)F)cc2OC(=O)c2ccccc2C)cc1 [Compound 1-80]		10
Oc1cc(C(F)(F)F)nnc1-c1cncc(Cl)c1F [Compound 1008]	10	
Oc1cc(C(F)(F)F)nnc1-c1cccnc1C(F)(F)F [Compound 976]	10	
Oc1cc(C(F)(F)F)nnc1-c1cncc2ccccc12 [Compound 637]	10	
Oc1cc(C(F)(F)F)nnc1-c1cnc(Cl)c(F)c1 [Compound 1006]	10	
CCSc1ncccc1C(=O)Oc1cc(C(F)(F)F)nnc1-c1ccc(F)c(F)c1 [Compound 1-113]		10
Oc1cc(C(F)(F)F)nnc1-c1c(Cl)ccnc1Cl [Compound 993]	10	
Oc1cc(C(F)(F)F)nnc1-c1cc2ccccc2o1 [Compound 613]	10	
Oc1cc(C(F)(F)F)nnc1-c1cncc(F)c1F [Compound 990]	10	
CC(C)n1nc(F)cc1-c1nnc(C(F)(F)F)cc1O [Compound 830]	10	
Cc1cc(C)c(S(=O)(=O)Oc2cc(C(F)(F)F)nnc2-c2ccccc2)c(C)c1 [Compound 1-131]		10
Oc1cc(C(F)(F)F)nnc1-c1cccc(F)c1F [Compound 766]	10	

test system: Amaranthus retroflexus; assay: Post-emergence test, weed control effect; type: in vivo; conditions: Dose 3000 g/ha, after 3 weeks
Summary of the method: as §1

SMILES	weed control effect (activity level), Amaranthus retroflexus	weed control effect, Amaranthus retroflexus (activity level)
Cc1cc(-c2nnc(C(F)(F)F)cc2O)nn1C [Compound 540]	10	
CCc1cnn(C)c1-c1nnc(C(F)(F)F)cc1O [Compound 809]	10	
Cc1ccc(-c2nnc(C(F)(F)F)cc2O)o1 [Compound 414]	10	
Oc1cc(C(F)(F)F)nnc1-c1ccc(Cl)nc1Cl [Compound 991]	10	
CCSC(=O)Oc1cc(C(F)(F)F)nnc1-c1ccc(F)c(F)c1 [Compound 1-42]		10
CS(=O)(=O)c1ccc(S(=O)(=O)Oc2cc(C(F)(F)F)nnc2-c2ccc(F)cc2)cc1 [Compound 1-137]		10
Cc1ccc(-c2nnc(C(F)(F)F)cc2OC(=O)c2ccccc2C)cc1 [Compound 1-80]		10
Oc1cc(C(F)(F)F)nnc1-c1cncc(Cl)c1F [Compound 1008]	10	
Oc1cc(C(F)(F)F)nnc1-c1cccnc1C(F)(F)F [Compound 976]	10	
Oc1cc(C(F)(F)F)nnc1-c1cncc2ccccc12 [Compound 637]	10	
Oc1cc(C(F)(F)F)nnc1-c1cnc(Cl)c(F)c1 [Compound 1006]	10	
CCSc1ncccc1C(=O)Oc1cc(C(F)(F)F)nnc1-c1ccc(F)c(F)c1 [Compound 1-113]		10
Oc1cc(C(F)(F)F)nnc1-c1c(Cl)ccnc1Cl [Compound 993]	10	
Oc1cc(C(F)(F)F)nnc1-c1cc2ccccc2o1 [Compound 613]	10	
Oc1cc(C(F)(F)F)nnc1-c1cncc(F)c1F [Compound 990]	10	
CC(C)n1nc(F)cc1-c1nnc(C(F)(F)F)cc1O [Compound 830]	10	
Cc1cc(C)c(S(=O)(=O)Oc2cc(C(F)(F)F)nnc2-c2ccccc2)c(C)c1 [Compound 1-131]		10
Oc1cc(C(F)(F)F)nnc1-c1cccc(F)c1F [Compound 766]	10	

test system: Rorippa indica; assay: Post-emergence test, weed control effect; type: in vivo; conditions: Dose 3000 g/ha, after 3 weeks
Summary of the method: as §1

SMILES	weed control effect (activity level), Rorippa indica	weed control effect, Rorippa indica (activity level)
Cc1cc(-c2nnc(C(F)(F)F)cc2O)nn1C [Compound 540]	10	
CCc1cnn(C)c1-c1nnc(C(F)(F)F)cc1O [Compound 809]	10	
Cc1ccc(-c2nnc(C(F)(F)F)cc2O)o1 [Compound 414]	10	
Oc1cc(C(F)(F)F)nnc1-c1ccc(Cl)nc1Cl [Compound 991]	10	
CCSC(=O)Oc1cc(C(F)(F)F)nnc1-c1ccc(F)c(F)c1 [Compound 1-42]		10
CS(=O)(=O)c1ccc(S(=O)(=O)Oc2cc(C(F)(F)F)nnc2-c2ccc(F)cc2)cc1 [Compound 1-137]		10
Cc1ccc(-c2nnc(C(F)(F)F)cc2OC(=O)c2ccccc2C)cc1 [Compound 1-80]		10
Oc1cc(C(F)(F)F)nnc1-c1cncc(Cl)c1F [Compound 1008]	10	
Oc1cc(C(F)(F)F)nnc1-c1cccnc1C(F)(F)F [Compound 976]	10	
Oc1cc(C(F)(F)F)nnc1-c1cncc2ccccc12 [Compound 637]	10	
Oc1cc(C(F)(F)F)nnc1-c1cnc(Cl)c(F)c1 [Compound 1006]	10	
CCSc1ncccc1C(=O)Oc1cc(C(F)(F)F)nnc1-c1ccc(F)c(F)c1 [Compound 1-113]		10
Oc1cc(C(F)(F)F)nnc1-c1c(Cl)ccnc1Cl [Compound 993]	10	
Oc1cc(C(F)(F)F)nnc1-c1cc2ccccc2o1 [Compound 613]	10	
Oc1cc(C(F)(F)F)nnc1-c1cncc(F)c1F [Compound 990]	10	
CC(C)n1nc(F)cc1-c1nnc(C(F)(F)F)cc1O [Compound 830]	10	
Cc1cc(C)c(S(=O)(=O)Oc2cc(C(F)(F)F)nnc2-c2ccccc2)c(C)c1 [Compound 1-131]		10
Oc1cc(C(F)(F)F)nnc1-c1cccc(F)c1F [Compound 766]	10	

test system: Veronica polita; assay: Post-emergence test, weed control effect; type: in vivo; conditions: Dose 3000 g/ha, after 3 weeks
Summary of the method: as §1

SMILES	weed control effect (activity level), Veronica polita	weed control effect, Veronica polita (activity level)
Cc1cc(-c2nnc(C(F)(F)F)cc2O)nn1C [Compound 540]	10	
CCc1cnn(C)c1-c1nnc(C(F)(F)F)cc1O [Compound 809]	10	
Cc1ccc(-c2nnc(C(F)(F)F)cc2O)o1 [Compound 414]	10	
Oc1cc(C(F)(F)F)nnc1-c1ccc(Cl)nc1Cl [Compound 991]	10	
CCSC(=O)Oc1cc(C(F)(F)F)nnc1-c1ccc(F)c(F)c1 [Compound 1-42]		10
CS(=O)(=O)c1ccc(S(=O)(=O)Oc2cc(C(F)(F)F)nnc2-c2ccc(F)cc2)cc1 [Compound 1-137]		10
Cc1ccc(-c2nnc(C(F)(F)F)cc2OC(=O)c2ccccc2C)cc1 [Compound 1-80]		10
Oc1cc(C(F)(F)F)nnc1-c1cncc(Cl)c1F [Compound 1008]	10	
Oc1cc(C(F)(F)F)nnc1-c1cccnc1C(F)(F)F [Compound 976]	10	
Oc1cc(C(F)(F)F)nnc1-c1cncc2ccccc12 [Compound 637]	10	
Oc1cc(C(F)(F)F)nnc1-c1cnc(Cl)c(F)c1 [Compound 1006]	10	
CCSc1ncccc1C(=O)Oc1cc(C(F)(F)F)nnc1-c1ccc(F)c(F)c1 [Compound 1-113]		10
Oc1cc(C(F)(F)F)nnc1-c1c(Cl)ccnc1Cl [Compound 993]	10	
Oc1cc(C(F)(F)F)nnc1-c1cc2ccccc2o1 [Compound 613]	10	
Oc1cc(C(F)(F)F)nnc1-c1cncc(F)c1F [Compound 990]	10	
CC(C)n1nc(F)cc1-c1nnc(C(F)(F)F)cc1O [Compound 830]	10	
Cc1cc(C)c(S(=O)(=O)Oc2cc(C(F)(F)F)nnc2-c2ccccc2)c(C)c1 [Compound 1-131]		10
Oc1cc(C(F)(F)F)nnc1-c1cccc(F)c1F [Compound 766]	10	
